# Test results published in article PMC5218480 (PLoS ONE, 2017).
# Test system: MV-4-11 cells
# Test: Gene expression microarray analysis (Affymetrix PrimeView) and GSEA
# Format: cell-based, human
# Parameters: RFU PODN (11730768_x_at) / Fold change /veh PODN (11730768_x_at) / RFU LINC00158 (11744669_a_at) / Fold change /veh LINC00158 (11744669_a_at) / RFU DUSP10 (11751237_a_at) / Fold change /veh DUSP10 (11751237_a_at) / RFU ID3 (11757404_x_at) / Fold change /veh ID3 (11757404_x_at) / RFU PLEKHG5 (11737974_s_at) / Fold change /veh PLEKHG5 (11737974_s_at) / RFU LRRC4B (11730491_at) / Fold change /veh LRRC4B (11730491_at) / RFU GIMAP4 (11747438_a_at) / Fold change /veh GIMAP4 (11747438_a_at) / RFU KRT8 (11758183_x_at) / Fold change /veh KRT8 (11758183_x_at) / RFU CNN1 (11734310_a_at) / Fold change /veh CNN1 (11734310_a_at) / RFU VPS37D (11726825_at) / Fold change /veh VPS37D (11726825_at) / RFU C10orf10 (11716522_x_at) / Fold change /veh C10orf10 (11716522_x_at) / RFU KIR2DL2 /// KIR2DL4 /// KIR2DL5A /// KIR2DL5B /// KIR2DS1 /// KIR2DS2 /// KIR2DS3 /// KIR2DS4 /// KIR3DL3 /// KIR3DL3 /// KIR3DS1 (11738374_at) / Fold change /veh KIR2DL2 /// KIR2DL4 /// KIR2DL5A /// KIR2DL5B /// KIR2DS1 /// KIR2DS2 /// KIR2DS3 /// KIR2DS4 /// KIR3DL3 /// KIR3DL3 /// KIR3DS1 (11738374_at) / RFU C1QL1 (11718748_at) / Fold change /veh C1QL1 (11718748_at) / RFU TMPRSS4 (11747572_a_at) / Fold change /veh TMPRSS4 (11747572_a_at) / RFU HAMP (11756126_x_at) / Fold change /veh HAMP (11756126_x_at) / RFU RNFT2 (11725882_a_at) / Fold change /veh RNFT2 (11725882_a_at) / RFU NR4A2 (11747474_a_at) / Fold change /veh NR4A2 (11747474_a_at) / RFU ABCC12 (11746883_a_at) / Fold change /veh ABCC12 (11746883_a_at) / RFU TMEM136 (11760407_x_at) / Fold change /veh TMEM136 (11760407_x_at) / RFU CLDN22 /// WWC2 (11732394_at) / Fold change /veh CLDN22 /// WWC2 (11732394_at) / RFU HLA-DPB1 (11760878_x_at) / Fold change /veh HLA-DPB1 (11760878_x_at) / RFU SPINT1 (11716480_a_at) / Fold change /veh SPINT1 (11716480_a_at) / RFU GAP43 (11754022_s_at) / Fold change /veh GAP43 (11754022_s_at) / RFU A4GNT (11735810_at) / Fold change /veh A4GNT (11735810_at) / RFU PRB3 (11715151_x_at) / Fold change /veh PRB3 (11715151_x_at) / RFU TUBB4B (11761932_at) / Fold change /veh TUBB4B (11761932_at) / RFU CAPN14 (11732068_a_at) / Fold change /veh CAPN14 (11732068_a_at) / RFU TMCC2 (11721928_a_at) / Fold change /veh TMCC2 (11721928_a_at) / RFU IRGQ (11745062_a_at) / Fold change /veh IRGQ (11745062_a_at) / RFU FAM174B (11720279_a_at) / Fold change /veh FAM174B (11720279_a_at) / RFU TMPRSS4 (11748680_a_at) / Fold change /veh TMPRSS4 (11748680_a_at) / RFU FAM212B (11763350_a_at) / Fold change /veh FAM212B (11763350_a_at) / RFU PLEKHG5 (11743358_a_at) / Fold change /veh PLEKHG5 (11743358_a_at) / RFU ZSCAN30 (11745921_a_at) / Fold change /veh ZSCAN30 (11745921_a_at) / RFU CMKLR1 (11741424_a_at) / Fold change /veh CMKLR1 (11741424_a_at) / RFU LOC101060620 /// MAPK8IP1 (11723275_at) / Fold change /veh LOC101060620 /// MAPK8IP1 (11723275_at) / RFU SPTSSB (11747773_x_at) / Fold change /veh SPTSSB (11747773_x_at) / RFU PRSS12 (11739890_at) / Fold change /veh PRSS12 (11739890_at) / RFU BIN1 (11741810_x_at) / Fold change /veh BIN1 (11741810_x_at) / RFU WNT11 (11732464_a_at) / Fold change /veh WNT11 (11732464_a_at) / RFU C10orf10 (11716521_a_at) / Fold change /veh C10orf10 (11716521_a_at) / RFU C5orf56 (11738089_at) / Fold change /veh C5orf56 (11738089_at) / RFU CYB561 (11721691_x_at) / Fold change /veh CYB561 (11721691_x_at) / RFU ANKRD19P (11752326_a_at) / Fold change /veh ANKRD19P (11752326_a_at) / RFU OR2T12 /// OR2T33 /// OR2T8 (11738714_s_at) / Fold change /veh OR2T12 /// OR2T33 /// OR2T8 (11738714_s_at) / RFU VCAN (11748164_a_at) / Fold change /veh VCAN (11748164_a_at) / RFU JSRP1 (11732532_at) / Fold change /veh JSRP1 (11732532_at) / RFU KRTAP10-11 (11738290_x_at) / Fold change /veh KRTAP10-11 (11738290_x_at) / RFU MYO3A (11730013_a_at) / Fold change /veh MYO3A (11730013_a_at) / RFU EBF3 (11725865_a_at) / Fold change /veh EBF3 (11725865_a_at) / RFU CAMK2N1 (11719241_x_at) / Fold change /veh CAMK2N1 (11719241_x_at) / RFU C5orf56 (11738088_a_at) / Fold change /veh C5orf56 (11738088_a_at) / RFU OLFML3 (11715873_a_at) / Fold change /veh OLFML3 (11715873_a_at) / RFU LOC100653217 /// NTM (11731650_a_at) / Fold change /veh LOC100653217 /// NTM (11731650_a_at) / RFU MAPK11 (11762145_a_at) / Fold change /veh MAPK11 (11762145_a_at) / RFU FIZ1 (11724087_x_at) / Fold change /veh FIZ1 (11724087_x_at) / RFU OASL (11726364_x_at) / Fold change /veh OASL (11726364_x_at) / RFU SOX15 (11748057_x_at) / Fold change /veh SOX15 (11748057_x_at) / RFU CD79A (11719716_a_at) / Fold change /veh CD79A (11719716_a_at) / RFU HIST1H1D (11736915_at) / Fold change /veh HIST1H1D (11736915_at) / RFU CASKIN2 (11723855_a_at) / Fold change /veh CASKIN2 (11723855_a_at) / RFU LOC730098 (11760151_x_at) / Fold change /veh LOC730098 (11760151_x_at) / RFU OR4N2 (11742367_at) / Fold change /veh OR4N2 (11742367_at) / RFU PRRT2 (11749266_a_at) / Fold change /veh PRRT2 (11749266_a_at) / RFU SNX32 (11753110_a_at) / Fold change /veh SNX32 (11753110_a_at) / RFU CDHR5 (11726645_a_at) / Fold change /veh CDHR5 (11726645_a_at) / RFU RCAN1 (11760418_a_at) / Fold change /veh RCAN1 (11760418_a_at) / RFU FAM167A (11723789_a_at) / Fold change /veh FAM167A (11723789_a_at) / RFU FAM26E (11764081_at) / Fold change /veh FAM26E (11764081_at) / RFU ISYNA1 (11749810_s_at) / Fold change /veh ISYNA1 (11749810_s_at) / RFU ACY1 (11761880_at) / Fold change /veh ACY1 (11761880_at) / RFU 11764098_at / Fold change /veh 11764098_at / RFU SAMD14 (11745864_x_at) / Fold change /veh SAMD14 (11745864_x_at) / RFU NPB (11741838_a_at) / Fold change /veh NPB (11741838_a_at) / RFU TMPRSS6 (11731388_a_at) / Fold change /veh TMPRSS6 (11731388_a_at) / RFU KRTAP10-2 (11738614_at) / Fold change /veh KRTAP10-2 (11738614_at) / RFU ARHGAP8 /// PRR5-ARHGAP8 (11727945_x_at) / Fold change /veh ARHGAP8 /// PRR5-ARHGAP8 (11727945_x_at) / RFU KRTAP5-7 /// NADSYN1 (11734609_at) / Fold change /veh KRTAP5-7 /// NADSYN1 (11734609_at) / RFU RASL12 (11751679_a_at) / Fold change /veh RASL12 (11751679_a_at) / RFU CDKN2B (11736163_a_at) / Fold change /veh CDKN2B (11736163_a_at) / RFU PRF1 (11729649_at) / Fold change /veh PRF1 (11729649_at) / RFU, ZNF638 /// ZNF638-IT1 / Fold change vs veh, ZNF638 /// ZNF638-IT1 / RFU, PANK3 / Fold change vs veh, PANK3 / RFU, SH3YL1 / Fold change vs veh, SH3YL1 / RFU, ZEB2 / Fold change vs veh, ZEB2 / RFU, NRIP1 / Fold change vs veh, NRIP1 / RFU, PTTG1IP / Fold change vs veh, PTTG1IP / RFU, CAPN2 / Fold change vs veh, CAPN2 / RFU, MED14 / Fold change vs veh, MED14 / RFU, SNORA58 / Fold change vs veh, SNORA58 / RFU, C1orf63 / Fold change vs veh, C1orf63 / RFU, LRRFIP1 / Fold change vs veh, LRRFIP1 / RFU, NDUFAF7 / Fold change vs veh, NDUFAF7 / RFU, SLC12A2 / Fold change vs veh, SLC12A2 / RFU, IBTK / Fold change vs veh, IBTK / RFU, ESF1 / Fold change vs veh, ESF1 / Fold change vs veh, TMEM50B / RFU, TAOK1 / Fold change vs veh, TAOK1 / RFU, ACBD3 / Fold change vs veh, ACBD3 / RFU, TMA16 / Fold change vs veh, TMA16 / RFU, RWDD3 / Fold change vs veh, RWDD3 / RFU, BCAT1 / Fold change vs veh, BCAT1 / RFU, EDEM3 / Fold change vs veh, EDEM3 / RFU, TMEM33 / Fold change vs veh, TMEM33 / RFU, WDR75 / Fold change vs veh, WDR75 / RFU, AHCTF1 / Fold change vs veh, AHCTF1 / RFU, TFRC / Fold change vs veh, TFRC / RFU, ZDHHC17 / Fold change vs veh, ZDHHC17 / RFU, NOM1 / Fold change vs veh, NOM1 / RFU, ARL8B / Fold change vs veh, ARL8B / RFU, ZBTB11 / Fold change vs veh, ZBTB11 / RFU, TAMM41 / Fold change vs veh, TAMM41 / RFU, KIAA1704 /// LOC100996395 / Fold change vs veh, KIAA1704 /// LOC100996395 / RFU, ING1 / Fold change vs veh, ING1 / RFU, TRMT61B / Fold change vs veh, TRMT61B / RFU, FUBP3 / Fold change vs veh, FUBP3 / RFU, TP53 / Fold change vs veh, TP53 / RFU, TNKS2 / Fold change vs veh, TNKS2 / RFU, ZFP14 / Fold change vs veh, ZFP14 / RFU, ACTR2 / Fold change vs veh, ACTR2 / RFU, PPP3R1 / Fold change vs veh, PPP3R1 / RFU, PIK3R1 / Fold change vs veh, PIK3R1 / RFU, HNRNPA1 / Fold change vs veh, HNRNPA1 / RFU, RNF170 / Fold change vs veh, RNF170 / RFU, ZNF28 / Fold change vs veh, ZNF28 / RFU, RNGTT / Fold change vs veh, RNGTT / RFU, OGT / Fold change vs veh, OGT / RFU, BRD1 / Fold change vs veh, BRD1 / RFU, MARS / Fold change vs veh, MARS / RFU, ZNF655 / Fold change vs veh, ZNF655 / RFU, FAHD1 / Fold change vs veh, FAHD1 / RFU, BDP1 / Fold change vs veh, BDP1 / RFU, LRRCC1 / Fold change vs veh, LRRCC1 / RFU, ARID1A / Fold change vs veh, ARID1A / RFU, ZNF146 / Fold change vs veh, ZNF146 / RFU, ZNF330 / Fold change vs veh, ZNF330 / RFU, GPN3 / Fold change vs veh, GPN3 / RFU, C9orf123 / Fold change vs veh, C9orf123 / RFU, N4BP2L2 / Fold change vs veh, N4BP2L2 / RFU, ARFIP1 / Fold change vs veh, ARFIP1 / RFU, FAM179B / Fold change vs veh, FAM179B / RFU, BCL10 / Fold change vs veh, BCL10 / RFU, UHRF1BP1L / Fold change vs veh, UHRF1BP1L / RFU, BET1 / Fold change vs veh, BET1 / RFU, CNOT2 / Fold change vs veh, CNOT2 / RFU, ZNF268 / Fold change vs veh, ZNF268 / Fold change vs veh, ZNF507 / RFU, DGCR2 / Fold change vs veh, DGCR2 / RFU, WDSUB1 / Fold change vs veh, WDSUB1 / Fold change vs veh, HSP90B1 /// MIR3652 / RFU, ADSS / Fold change vs veh, ADSS / RFU, GK / Fold change vs veh, GK / RFU, ZNF148 / Fold change vs veh, ZNF148 / RFU, TAF9 / Fold change vs veh, TAF9 / RFU, SLC1A5 / Fold change vs veh, SLC1A5 / RFU, SLMO2 / Fold change vs veh, SLMO2 / RFU, ABCC4 / Fold change vs veh, ABCC4 / RFU, LOC101060439 /// RAP1B / Fold change vs veh, LOC101060439 /// RAP1B / RFU, RFX7 / Fold change vs veh, RFX7 / RFU, GTPBP10 / Fold change vs veh, GTPBP10 / RFU, CNEP1R1 / Fold change vs veh, CNEP1R1 / RFU, BIVM-ERCC5 /// ERCC5 / Fold change vs veh, BIVM-ERCC5 /// ERCC5 / RFU, ILF3 / Fold change vs veh, ILF3 / RFU 11762660_at / Fold change /veh 11762660_at / RFU VCAN (11757783_s_at) / Fold change /veh VCAN (11757783_s_at) / RFU DDX43 (11728927_at) / Fold change /veh DDX43 (11728927_at) / RFU KRT8 (11758188_x_at) / Fold change /veh KRT8 (11758188_x_at) / RFU NKD1 (11759106_at) / Fold change /veh NKD1 (11759106_at) / RFU SRD5A1 (11742802_a_at) / Fold change /veh SRD5A1 (11742802_a_at) / RFU TPSAB1 /// TPSB2 (11721975_s_at) / Fold change /veh TPSAB1 /// TPSB2 (11721975_s_at) / RFU GSTM3 (11746129_a_at) / Fold change /veh GSTM3 (11746129_a_at) / RFU IL23R (11737362_x_at) / Fold change /veh IL23R (11737362_x_at) / RFU TMEM51 (11727254_a_at) / Fold change /veh TMEM51 (11727254_a_at) / RFU PIWIL2 (11732686_x_at) / Fold change /veh PIWIL2 (11732686_x_at) / RFU ORM1 (11744905_x_at) / Fold change /veh ORM1 (11744905_x_at) / RFU CCDC152 (11743942_at) / Fold change /veh CCDC152 (11743942_at) / RFU ECM1 (11717891_a_at) / Fold change /veh ECM1 (11717891_a_at) / RFU IL23R (11748794_a_at) / Fold change /veh IL23R (11748794_a_at) / RFU TNFAIP8L3 (11732012_x_at) / Fold change /veh TNFAIP8L3 (11732012_x_at) / RFU MBOAT4 (11741988_at) / Fold change /veh MBOAT4 (11741988_at) / RFU 11764193_at / Fold change /veh 11764193_at / RFU TMEM53 (11763286_at) / Fold change /veh TMEM53 (11763286_at) / RFU MAGEB2 (11727129_at) / Fold change /veh MAGEB2 (11727129_at) / RFU TMEM200A (11744735_a_at) / Fold change /veh TMEM200A (11744735_a_at) / RFU CCDC152 (11751479_a_at) / Fold change /veh CCDC152 (11751479_a_at) / RFU FAM211A (11726209_a_at) / Fold change /veh FAM211A (11726209_a_at) / RFU RGS16 (11746705_a_at) / Fold change /veh RGS16 (11746705_a_at) / RFU VCAN (11755009_s_at) / Fold change /veh VCAN (11755009_s_at) / RFU RHOB (11743442_s_at) / Fold change /veh RHOB (11743442_s_at) / RFU RGS16 (11720943_a_at) / Fold change /veh RGS16 (11720943_a_at) / RFU RGS16 (11720944_at) / Fold change /veh RGS16 (11720944_at) / RFU, VPS4B / Fold change vs veh, VPS4B / RFU, CREB1 / Fold change vs veh, CREB1 / RFU, DNAJC13 / Fold change vs veh, DNAJC13 / RFU, GNAQ / Fold change vs veh, GNAQ / RFU, CDK5R1 / Fold change vs veh, CDK5R1 / RFU, ZRANB3 / Fold change vs veh, ZRANB3 / RFU, CUL4A / Fold change vs veh, CUL4A / RFU, CCNY / Fold change vs veh, CCNY / RFU, UFL1 / Fold change vs veh, UFL1 / RFU, COG3 / Fold change vs veh, COG3 / RFU, DIAPH2 / Fold change vs veh, DIAPH2 / RFU, SKA2 / Fold change vs veh, SKA2 / RFU, AFF3 / Fold change vs veh, AFF3 / RFU, LMF1 / Fold change vs veh, LMF1 / RFU, IPO11 / Fold change vs veh, IPO11 / RFU, DFFB / Fold change vs veh, DFFB / RFU, FOXP1 / Fold change vs veh, FOXP1 / RFU, CARD8 / Fold change vs veh, CARD8 / RFU, STRN3 / Fold change vs veh, STRN3 / RFU, ADK / Fold change vs veh, ADK / RFU, RASSF2 / Fold change vs veh, RASSF2 / RFU, WIPF1 / Fold change vs veh, WIPF1 / RFU, LARP1B / Fold change vs veh, LARP1B / RFU, RASA1 / Fold change vs veh, RASA1 / RFU, RB1 / Fold change vs veh, RB1 / RFU, PPFIA1 / Fold change vs veh, PPFIA1 / RFU, MAT2A / Fold change vs veh, MAT2A / RFU, CCT5 / Fold change vs veh, CCT5 / RFU, WDR92 / Fold change vs veh, WDR92 / RFU, CUX1 / Fold change vs veh, CUX1 / RFU, TTC7A / Fold change vs veh, TTC7A / RFU, TMEM135 / Fold change vs veh, TMEM135 / RFU, DEPTOR / Fold change vs veh, DEPTOR / RFU, CPM / Fold change vs veh, CPM / RFU, DNAJB6 / Fold change vs veh, DNAJB6 / RFU, CACNA2D3 / Fold change vs veh, CACNA2D3 / RFU, DTX4 / Fold change vs veh, DTX4 / RFU, TFCP2 / Fold change vs veh, TFCP2 / RFU, GMCL1 /// GMCL1P1 / Fold change vs veh, GMCL1 /// GMCL1P1 / RFU, AEBP2 / Fold change vs veh, AEBP2 / RFU, SNHG1 /// SNORD22 /// SNORD25 /// SNORD26 /// SNORD27 /// SNORD28 /// SNORD29 /// SNORD31 / Fold change vs veh, SNHG1 /// SNORD22 /// SNORD25 /// SNORD26 /// SNORD27 /// SNORD28 /// SNORD29 /// SNORD31 / Fold change (Aza/veh), C12orf56 (ProbeSet 11735607_a_at) / Fold change (ACY-1035/veh), C12orf56 (ProbeSet 11735607_a_at) / Fold change (Aza/veh), FGFR1OP (ProbeSet 11751329_s_at) / Fold change (ACY-1035/veh), FGFR1OP (ProbeSet 11751329_s_at) / Fold change (Aza/veh), VPS36 (ProbeSet 11739960_a_at) / Fold change (ACY-1035/veh), VPS36 (ProbeSet 11739960_a_at) / RFU SYPL1 (11715823_x_at) / Fold change /veh SYPL1 (11715823_x_at) / RFU IGFBP7 (11715501_s_at) / Fold change /veh IGFBP7 (11715501_s_at) / RFU REEP3 (11722064_at) / Fold change /veh REEP3 (11722064_at) / RFU IGLL1 (11728026_x_at) / Fold change /veh IGLL1 (11728026_x_at): dose or concentration left out as unconfirmed
# Settings: ProbeSet 11763166_a_at; LIST B
compound,measurement,value
Nc1ccc(-c2cccs2)cc1NC(=O)c1ccc2c(c1)cc(C1CC1)n2CCN1CCOCC1 [ACY-1035],"RFU, MARS",48.43 RFU
